Experimental data from US20170306409A1, “CANCER PATIENT SELECTION FOR ADMINISTRATION OF WNT SIGNALING INHIBITORS USING RNF43 MUTATION STATUS” (NOVARTIS AG, priority 2012, published 2017).

Tests used:
Assay type in all cases: cell-based, human
[1] = test system: Axin2, YAPC; experiment: Axin2 qPCR assay (pathway inhibition); settings: YAPC cells; 3 μM of IWP2
Protocol: (§1) For reverse transcription and quantitative PCR (qPCR), total RNA was extracted from cells or tumors using the RNeasy Plus Mini Kit (Qiagen). 1 μg of RNA were reverse transcribed with Taqman Reverse Transcription Reagents (Applied Biosystems) according to the manufacturer's instruction. Quantitative PCR was performed in 12 μl reactions consisting of 0.6 μl of 20× Taqman probe and PCR primer mix, 6 μl 2× Taqman FAST Advanced Master Mix (Applied Biosystems), and 5.4 μl diluted cDNA template. The thermocycling conditions utilized were 20 seconds at 95° C., followed by 40 cycles of 1 second at 95° C. and 20 seconds at 60° C. All experiments were performed in quadruplicates. Gene expression analysis was performed using the comparative ΔΔCT method and normalized with the housekeeping gene GUSB or 18S. The Taqman probes were purchased from Applied Biosystems.
(§2) Consistent with this observation, treatment of Porcupine inhibitor IWP2 or LGK974 increased the cell surface level of Frizzled and decreased the mRNA levels of AXIN2 and RNF43. See, FIG. 4(b). […] YAPC cells were treated with 3 μM of IWP-2 or 1 μM of LGK974, and subjected to flowcytometry analysis for membrane Frizzled expression.

[2] = test system: cell surface Frizzled (FZD), YAPC cells; experiment: flow cytometry of membrane Frizzled (pan-Frizzled antibody 18R5)
Protocol: YAPC cells were transfected with indicated siRNA, and membrane levels of Frizzled were analyzed by flowcytometry using pan-Frizzled antibody 18R5.
For flow cytometric analysis, cells were harvested using trypsin-free cell dissociation buffer (Invitrogen) and resuspended in FACS buffer (PBS with 1% BSA and 0.02% sodium azide). After blocking, cells were incubated with anti-pan-Frizzled (18R5) antibody for 1 hour at 4° C., followed by incubation with Allophycocyanin (APC)-conjugated goat anti-human IgG secondary antibody. After extensive washes using FACS buffer, cells were stained with propidium iodide (PI) and subjected to multi-channel analysis using BD LSR II flow cytometer.
as §2

[3] = test system: STF Wnt reporter, YAPC-STF cells; experiment: SuperTOPFlash (STF) luciferase reporter assay; settings: absence of exogenous Wnt3a, LGK974 or IWP-2
Protocol: For the luciferase reporter assay, YAPC-STF reporter cells were transfected with siRNA and treated with Wnt3a conditioned medium or compound where applicable. STF luciferase assays were performed using BrightGlo Luciferase Assay kits (Promega) according to the manufacturer's instructions.
To construct pancreatic cell lines expressing STF reporter, HEK293 cells were grown in medium recommended by ATCC supplemented with 10% FBS. Retrovirus or lentivirus was produced from HEK293 cells by standard virus packaging procedure using FuGENE 6 (Roche) transfection reagent. Pancreatic cell lines expressing STF reporter, RNF43 constructs, or DOX-inducible β-catenin shRNA were generated by viral infection and drug selection.
Depletion of RNF43 induces Dvl phosphorylation and β-catenin stabilization. […] RNF43 siRNA-induced STF activity in the absence of exogenous Wnt3a is inhibited by LGK974 and a previously known Porcupine inhibitor IWP-2. Chen B et al. (2009) Nat. Chem. Biol. 5(2):100-7. See, FIG. 3(b), showing that this activity is dependent on the expression of endogenous Wnt proteins.

[4] = test system: RNF43 mRNA, YAPC cells; experiment: quantitative RT-PCR gene expression analysis; settings: 3 μM of IWP2
Protocol: FIG. 4(a) is a bar graph showing that the depletion of β-catenin decreases mRNA level of AXIN2 and RNF43. Cells were treated with siRNA, and relative mRNA levels of indicated genes were analyzed by quantitative RT-PCR. […] YAPC cells were treated with 3 μM of IWP2 or 1 μM of LGK974, and subjected to gene expression analysis by quantitative RT-PCR.
as §1
Consistent with this observation, treatment of Porcupine inhibitor IWP2 or LGK974 increased the cell surface level of Frizzled and decreased the mRNA levels of AXIN2 and RNF43. See, FIG. 4(b). […]

Cc1ccc2nc(NC(=O)CSc3nc4c(c(=O)n3-c3ccccc3)SCC4)sc2c1 [IWP-2, reference compound] was tested, and the “mRNA level of AXIN2” value [1] was “decreased”, the “Median FZD intensity in FACS” value ([2]; 3 μM of IWP-2, DMSO 721) was 1754 and the “Median FZD intensity in FACS” value ([2]; 3 μM of IWP-2, DMSO 721, listed as IWP2) was “increased”. For the same compound, the “RNF43 siRNA-induced STF activity” value [3] was “inhibited” and the “mRNA level of RNF43” value [4] was “decreased”.
